Experimental data taken from patent publication US20100048699A1, “CHEMICAL COMPOUNDS” (SYNGENTA CROP PROTECTION, INC., priority 2006, published 2010).

Assays:
Myzus persicae [1] = test: Myzus persicae (green peach aphid) pea seedling root uptake test; settings: 144 h, read-out: control of Myzus persicae
Myzus persicae [2] = test: Myzus persicae (green peach aphid) sunflower leaf disc spray test; settings: foliar, 144 h, read-out: control of Myzus persicae
Tetranychus urticae = Tetranychus urticae (two-spotted spider mite) bean leaf disc spray test; settings: foliar, 192 h, read-out: control of Tetranychus urticae

| SMILES | pest or weed control at 24 ppm (Myzus persicae [1]) [%] | pest or weed control at 200 ppm (Myzus persicae [2]) [%] | pest or weed control at 200 ppm (Tetranychus urticae) [%] |
| --- | --- | --- | --- |
| COC(=O)OCCNC(=S)NC1CCc2c(F)cccc21 (stereo not shown) [Compound 3.038, carbonic acid 2-[3(4-fluoro-indan-1-yl)-thioureido]-ethyl methylester] | ≥ 80 | ≥ 80 | ≥ 80 |
| O=C(OCCNC(=S)NC1CCc2c(F)cccc21)N1CCCCC1 (stereo not shown) [Compound 11.001] | – | ≥ 80 | ≥ 80 |
| O=C(OCCNC(=S)NC1CCc2c(F)cccc21)c1ccc(F)cc1 (stereo not shown) [Compound 11.003] | ≥ 80 | ≥ 80 | ≥ 80 |
| N#Cc1ccc(C(=O)OCCNC(=S)NC2CCc3c(F)cccc32)cc1 (stereo not shown) [Compound 11.005] | ≥ 80 | ≥ 80 | ≥ 80 |
| O=C(/C=C/c1ccccc1)OCCNC(=S)NC1CCc2c(F)cccc21 (stereo not shown) [Compound 11.006] | ≥ 80 | ≥ 80 | ≥ 80 |
| COc1ccccc1C(=O)OCCNC(=S)NC1CCc2c(F)cccc21 (stereo not shown) [Compound 11.007] | ≥ 80 | ≥ 80 | ≥ 80 |
| COc1ccc(C(=O)OCCNC(=S)NC2CCc3c(F)cccc32)cc1 (stereo not shown) [Compound 11.009] | ≥ 80 | ≥ 80 | ≥ 80 |
| O=C(OCCNC(=S)NC1CCc2c(F)cccc21)c1ccc(Cl)cc1 (stereo not shown) [Compound 11.010] | ≥ 80 | ≥ 80 | ≥ 80 |
| O=C(OCCNC(=S)NC1CCc2c(F)cccc21)c1cccc(Cl)c1 (stereo not shown) [Compound 11.011] | ≥ 80 | ≥ 80 | ≥ 80 |
| O=C(OCCNC(=S)NC1CCc2c(F)cccc21)c1ccccc1Cl (stereo not shown) [Compound 11.012] | ≥ 80 | ≥ 80 | ≥ 80 |
| O=C(OCCNC(=S)NC1CCc2c(F)cccc21)c1cc(F)ccc1F (stereo not shown) [Compound 11.013] | ≥ 80 | ≥ 80 | ≥ 80 |
| O=C(OCCNC(=S)NC1CCc2c(F)cccc21)c1ccc(F)cc1F (stereo not shown) [Compound 11.014] | ≥ 80 | ≥ 80 | ≥ 80 |
| CN(C)c1ccc(C(=O)OCCNC(=S)NC2CCc3c(F)cccc32)cc1 (stereo not shown) [Compound 11.015] | – | ≥ 80 | – |
| COc1ccc(CC(=O)OCCNC(=S)NC2CCc3c(F)cccc32)cc1 (stereo not shown) [Compound 11.016] | ≥ 80 | ≥ 80 | ≥ 80 |
| O=C(Cc1ccc(Cl)cc1)OCCNC(=S)NC1CCc2c(F)cccc21 (stereo not shown) [Compound 11.018] | ≥ 80 | ≥ 80 | ≥ 80 |
| O=C(OCCNC(=S)NC1CCc2c(F)cccc21)c1ccccc1C(F)(F)F (stereo not shown) [Compound 11.023] | ≥ 80 | ≥ 80 | ≥ 80 |
| O=C(OCCNC(=S)NC1CCc2c(F)cccc21)c1ccc(C(F)(F)F)cc1 (stereo not shown) [Compound 11.024] | ≥ 80 | ≥ 80 | ≥ 80 |
| O=C(/C=C/c1ccc([N+](=O)[O-])cc1)OCCNC(=S)NC1CCc2c(F)cccc21 (stereo not shown) [Compound 11.027] | – | ≥ 80 | – |
| COc1ccc(CC(=O)OCCNC(=S)NC2CCc3c(F)cccc32)cc1OC (stereo not shown) [Compound 11.028] | ≥ 80 | ≥ 80 | ≥ 80 |
| O=C(OCCNC(=S)NC1CCc2c(F)cccc21)OCc1ccc([N+](=O)[O-])cc1 (stereo not shown) [Compound 11.030] | ≥ 80 | ≥ 80 | ≥ 80 |
| O=C(OCCNC(=S)NC1CCc2c(F)cccc21)c1cccc2c1OC(F)(F)O2 (stereo not shown) [Compound 11.031] | ≥ 80 | ≥ 80 | – |
| O=C(OCCNC(=S)NC1CCc2c(F)cccc21)c1ccc(F)cc1C(F)(F)F (stereo not shown) [Compound 11.034] | ≥ 80 | ≥ 80 | – |
| O=C(OCCNC(=S)NC1CCc2c(F)cccc21)c1ccc(F)c(C(F)(F)F)c1 (stereo not shown) [Compound 11.035] | ≥ 80 | ≥ 80 | ≥ 80 |
| O=C(OCCNC(=S)NC1CCc2c(F)cccc21)N(c1ccccc1)c1ccccc1 (stereo not shown) [Compound 11.039] | – | ≥ 80 | – |
| CCCC(C(=O)OCCNC(=S)NC1CCc2c(F)cccc21)c1ccc(Cl)cc1Cl (stereo not shown) [Compound 11.040] | ≥ 80 | ≥ 80 | ≥ 80 |

| SMILES | pest or weed control at 24 ppm (Myzus persicae [1]) [%] | pest or weed control at 200 ppm (Myzus persicae [2]) [%] | pest or weed control at 200 ppm (Tetranychus urticae) [%] |
| --- | --- | --- | --- |
| O=C(OCc1ccccc1C(=O)OCCNC(=S)NC1CCc2c(F)cccc21)c1ccccc1 (stereo not shown) [Compound 11.041] | – | ≥ 80 | ≥ 80 |
| Cc1ccc(-n2c(=O)cc(C(F)(F)F)n(C)c2=O)cc1C(=O)OCCNC(=S)NC1CCc2c(F)cccc21 (stereo not shown) [Compound 11.043] | – | ≥ 80 | ≥ 80 |
| Cc1cc(C(=O)OCCNC(=S)NC2CCc3c(F)cccc32)c(C(F)(F)F)o1 (stereo not shown) [Compound 11.044] | ≥ 80 | ≥ 80 | ≥ 80 |
| Cc1oc(C(C)(C)C)cc1C(=O)OCCNC(=S)NC1CCc2c(F)cccc21 (stereo not shown) [Compound 11.045] | ≥ 80 | ≥ 80 | – |
| Cc1c(S(=O)(=O)c2ccc(Cl)cc2)csc1C(=O)OCCNC(=S)NC1CCc2c(F)cccc21 (stereo not shown) [Compound 11.046] | – | ≥ 80 | ≥ 80 |
| COc1cc(C(=O)OCCNC(=S)NC2CCc3c(F)cccc32)cc(Cl)n1 (stereo not shown) [Compound 11.047] | ≥ 80 | ≥ 80 | ≥ 80 |
| O=C(/C=C/c1cccc(C(F)(F)F)c1)OCCNC(=S)NC1CCc2c(F)cccc21 (stereo not shown) [Compound 11.048] | ≥ 80 | ≥ 80 | ≥ 80 |
| O=C(OCCNC(=S)NC1CCc2c(F)cccc21)c1cncc(Br)c1 (stereo not shown) [Compound 11.049] | ≥ 80 | ≥ 80 | – |
| CCC(Oc1ccccc1)C(=O)OCCNC(=S)NC1CCc2c(F)cccc21 (stereo not shown) [Compound 11.051] | ≥ 80 | ≥ 80 | ≥ 80 |
| O=C(OCCNC(=S)NC1CCc2c(F)cccc21)c1cc(C(F)(F)F)ccc1F (stereo not shown) [Compound 11.052] | – | ≥ 80 | ≥ 80 |
| C/C(=C\c1ccccc1)C(=O)OCCNC(=S)NC1CCc2c(F)cccc21 (stereo not shown) [Compound 11.053] | ≥ 80 | ≥ 80 | ≥ 80 |
| O=C(OCCNC(=S)NC1CCc2c(F)cccc21)c1ccccc1I (stereo not shown) [Compound 11.054] | ≥ 80 | ≥ 80 | – |
| O=C(OCCNC(=S)NC1CCc2c(F)cccc21)C1Cc2ccccc2O1 (stereo not shown) [Compound 11.055] | ≥ 80 | ≥ 80 | ≥ 80 |
| O=C(OCCNC(=S)NC1CCc2c(F)cccc21)c1ccc(Cl)c([N+](=O)[O-])c1 (stereo not shown) [Compound 11.058] | ≥ 80 | ≥ 80 | ≥ 80 |
| O=C(NCCOC(=O)c1cnn(-c2ccccc2)c1C(F)(F)F)NC1CCc2c(F)cccc21 (stereo not shown) [Compound 11.059] | ≥ 80 | ≥ 80 | ≥ 80 |
| Cc1ccccc1CC(=O)OCCNC(=S)NC1CCc2c(F)cccc21 (stereo not shown) [Compound 11.060] | ≥ 80 | ≥ 80 | ≥ 80 |
| O=C(Cc1ccccc1F)OCCNC(=S)NC1CCc2c(F)cccc21 (stereo not shown) [Compound 11.062] | ≥ 80 | ≥ 80 | ≥ 80 |
| O=C(Cc1ccc(F)cc1)OCCNC(=S)NC1CCc2c(F)cccc21 (stereo not shown) [Compound 11.063] | ≥ 80 | ≥ 80 | ≥ 80 |
| O=C(OCCNC(=S)NC1CCc2c(F)cccc21)c1ccc(SC(F)(F)C(F)(F)F)cc1 (stereo not shown) [Compound 11.064] | – | ≥ 80 | ≥ 80 |
| O=C(Cc1cccc(C(F)(F)F)c1)OCCNC(=S)NC1CCc2c(F)cccc21 (stereo not shown) [Compound 11.065] | ≥ 80 | ≥ 80 | ≥ 80 |
| Cc1ccsc1C(=O)OCCNC(=S)NC1CCc2c(F)cccc21 (stereo not shown) [Compound 11.067] | – | ≥ 80 | ≥ 80 |
| O=C(OCCNC(=S)NC1CCc2c(F)cccc21)c1cc(Cl)sc1Cl (stereo not shown) [Compound 11.068] | – | ≥ 80 | ≥ 80 |
| Cc1c(C(=O)OCCNC(=S)NC2CCc3c(F)cccc32)ncn1C(C)(C)C (stereo not shown) [Compound 11.070] | ≥ 80 | ≥ 80 | ≥ 80 |
| Cc1nn(-c2ccccc2)nc1C(=O)OCCNC(=S)NC1CCc2c(F)cccc21 (stereo not shown) [Compound 11.072] | – | ≥ 80 | ≥ 80 |
